# Measured values taken from paper PMC12040169 (PLOS Biology, 2025).
# Experiment: in vitro
# Settings: human, hela cells, % viability
row,Compound,"viability at 28.5 h, 10 µM"
1,O=C(c1ccco1)N1CCN(c2cncc(-c3cc4ccccc4o3)n2)CC1 [CBK066044],101%
2,c1ccc2oc(-c3cncc(N4CCN(CCN5CCCC5)CC4)n3)cc2c1 [CBK066052],97.1%
3,C[C@@H](Nc1cncc(-c2ccncc2)n1)c1ccccc1 [CBK066055],90%
4,c1ccc2oc(-c3cncc(NCCc4c[nH]c5ccccc45)n3)cc2c1 [CBK066068],93.1%
5,CC(CCCC(C)(C)O)Nc1cncc(-c2ccc(C(N)=O)cc2)n1 (stereo not shown) [CBK066071],103%
6,CCOc1cccc(-c2cncc(NCCO)n2)c1 [CBK066075],81%
7,CCCC/C=C/c1cncc(NCCc2c[nH]c3ccccc23)n1 [CBK066081],100%
8,O=C(O)/C=C/c1cccc(-c2cncc(N3CCN(Cc4ccccn4)CC3)n2)c1 [CBK066085],96%
9,CC(C)(CO)CNc1cncc(-c2ccccc2CO)n1 [CBK066088],96.3%
10,OCCC1CCCCN1c1cncc(C2CCOC2)n1 (stereo not shown) [CBK066127],101%
11,COc1cc(CNc2cncc(-c3cccc(NC(C)=O)c3)n2)cc(OC)c1OC [CBK066133],100%
12,OCc1cccc(-c2cncc(N3CCN(CCN4CCCC4)CC3)n2)c1 [CBK066136],99.8%
13,COc1ccccc1-c1cn2ccnc2c(N(C)CCN(C)C)n1 [CBK066156],97.5%
14,O=C(O)CCc1ccc(-c2cn3ccnc3c(N3CCOCC3)n2)cc1 [CBK066166],93.6%
15,c1ccc(-c2cn3ccnc3c(N3CCN(c4ccncc4)CC3)n2)cc1 [CBK066177],110%
16,COc1cc(-c2cn3ccnc3c(N[C@H](CO)C(C)C)n2)cc(OC)c1OC [CBK066220],103%
17,c1ccc(Nc2nc(-c3ccc(N4CCOCC4)cc3)cn3ccnc23)cc1 [CBK066222],90.4%
18,Clc1cccc(-c2cn3ccnc3c(NCc3cccnc3)n2)c1 [CBK066237],104%
19,Brc1cn2ccnc2c(NCCc2ccccn2)n1 [CBK066244],92.9%
20,COc1cc(Nc2nc(-c3cccc(C(=O)NCCN(C)C)c3)cn3ccnc23)cc(OC)c1OC [CBK066250],89%
21,COc1ccc(Nc2nc(-c3ccc(Cl)cc3)cn3ccnc23)cn1 [CBK066254],113%
22,CCN(CCO)c1ccc(Nc2nc(-c3c(OC)cccc3OC)cn3ccnc23)cc1 [CBK066267],89.9%
23,CCCC/C=C/c1cn2ccnc2c(NCCc2ccccn2)n1 [CBK066275],106%

row,Compound,"viability at 28.5 h, 10 µM"
1,CN(C)CCN(C)c1nc(-c2ccc3[nH]ccc3c2)cn2ccnc12 [CBK066276],94.4%
2,FC(F)C(F)(F)Oc1cccc(Nc2nccn3ccnc23)c1 [CBK066284],91.6%
3,c1ccc2cc(-c3cn4ccnc4c(NC4CCOCC4)n3)ccc2c1 [CBK066290],96.1%
4,CC(C)[C@H](CO)Nc1nc(-c2ccco2)cn2ccnc12 [CBK066316],103%
5,COc1ccc(C(C)C)cc1-c1cn2ccnc2c(NC2CCOCC2)n1 [CBK066320],94%
6,CC(=O)Nc1ccc(Nc2nc(Br)cn3ccnc23)cc1 [CBK066338],104%
7,c1ccc2c(-c3cn4ccnc4c(Nc4ccc5cn[nH]c5c4)n3)cccc2c1 [CBK066346],88%
8,c1ccc2cc(-c3cn4ccnc4c(Nc4ccc(N5CCOCC5)cc4)n3)ccc2c1 [CBK066359],108%
9,CCCNc1nc(-c2cc(OC)c(OC)c(OC)c2)cn2ccnc12 [CBK066363],99.2%
10,c1ccc2cc(-c3cn4ccnc4c(N4CCN(c5ccncc5)CC4)n3)ccc2c1 [CBK066369],89.2%
11,CCNc1nc(-c2cccc(/C=C/C(=O)O)c2)cn2ccnc12 [CBK066373],88.5%
12,CCCNc1nc(-c2cccc(O)c2)cn2ccnc12 [CBK066395],93.5%
13,COc1ccccc1-c1cn2ccnc2c(Nc2cccc(Cl)c2)n1 [CBK066399],89.4%
14,COCCNc1nc(-c2ccoc2)cn2ccnc12 [CBK066416],104%
15,CCNc1nc(-c2ccc(S(C)(=O)=O)cc2)cn2ccnc12 [CBK066452],87.1%
16,Nc1ccc(-c2cn3ccnc3c(Nc3ccc(Cl)cc3)n2)cc1 [CBK066453],87%
17,CN(C)CCN(C)c1nc(-c2ccc(C(C)(C)C)cc2)cn2ccnc12 [CBK066477],107%
18,Cc1cccc(-c2cn3ccnc3c(N3CCN(c4ccccn4)CC3)n2)c1 [CBK066478],89.3%
19,CSc1ccc(-c2cn3ccnc3c(NCCc3ccncc3)n2)cc1 [CBK066479],102%
20,CCNc1nc(-c2cc(Cl)cc(Cl)c2)cn2ccnc12 [CBK066483],89.6%
21,CCNc1nc(-c2ccc(SCC)cc2)cn2ccnc12 [CBK066489],114%
22,Clc1ccc(Nc2nc(-c3ccoc3)cn3ccnc23)cc1 [CBK066497],102%
23,Cc1csc(-c2cn3ccnc3c(N(C)CCN(C)C)n2)c1 [CBK066553],96.3%

row,Compound,"viability at 28.5 h, 10 µM"
1,CCCNc1nc(-c2ccc(F)c(F)c2)cn2ccnc12 [CBK066573],94.8%
2,CCOc1cccc(-c2cn3ccnc3c(NCCc3ccccn3)n2)c1 [CBK066586],94.4%
3,Nc1ccc(-c2cn3ccnc3c(NCc3ccccc3)n2)cc1 [CBK066592],108%
4,CSc1ccc(-c2cn3ccnc3c(N3CCN(CCO)CC3)n2)cc1 [CBK066596],86.6%
5,c1coc(CNc2nc(-c3ccoc3)cn3ccnc23)c1 [CBK066610],98.8%
6,CCOc1cccc(-c2cn3ccnc3c(N3CCN(CCO)CC3)n2)c1 [CBK066612],95.9%
7,COc1cc(CNc2nc(-c3ccc(C(C)(C)C)cc3)cn3ccnc23)cc(OC)c1OC [CBK066615],99.3%
8,CCCNc1nc(-c2ccc(SC)cc2)cn2ccnc12 [CBK066619],95.5%
9,CCCNc1nc(-c2ccc(C)c(C)c2)cn2ccnc12 [CBK066627],101%
10,FC(F)(F)c1cccc(-c2cn3ccnc3c(NCc3ccncc3)n2)c1 [CBK066632],97.8%
11,c1ccc(CCNc2nc(-c3cccs3)cn3ccnc23)nc1 [CBK066633],101%
12,CN1CCN(c2nc(-c3ccoc3)cn3ccnc23)CC1 [CBK066645],97.1%
13,Clc1cc(Cl)cc(-c2cn3ccnc3c(NCc3ccncc3)n2)c1 [CBK066664],94.3%
14,Cc1cc(-c2cn3ccnc3c(N3CCOCC3)n2)cc(C)c1O [CBK066691],97.4%
15,OCC1CCCN1c1nc(-c2ccc(Oc3ccccc3)cc2)cn2ccnc12 (stereo not shown) [CBK066713],100%
16,CCOc1cccc(-c2cn3ccnc3c(NCc3cc(OC)c(OC)c(OC)c3)n2)c1 [CBK066717],96.7%
17,c1cn2cc(-c3ccoc3)nc(NC3CC3)c2n1 [CBK066720],102%
18,COC(=O)c1ccc(-c2cn3ccnc3c(NCc3ccncc3)n2)cc1 [CBK066734],88.2%
19,O=C1N=C(NC2CCCCCC2)SC1Cc1nc2ccccc2[nH]1 (stereo not shown) [CBK066789],83.7%
20,CCN(Cc1cncn1C)C(CC1CCCCC1)c1ccccc1 (stereo not shown) [CBK066815T],122%
21,O=C(Nc1ccc(Br)cc1C(=O)O)c1cccs1 [CBK066822],86.8%
22,COC(=O)c1sccc1Oc1ccc([N+](=O)[O-])cn1 [CBK066826],115%
23,N#Cc1cc(F)cc(F)c1NC(=O)c1cccs1 [CBK066832],90.2%

row,Compound,"viability at 28.5 h, 10 µM"
1,O=C(Nc1ccc(Br)cc1C(=O)c1ccccc1)c1ccc([N+](=O)[O-])s1 [CBK066838],111%
2,N#Cc1sc(-c2ccc(F)cc2)cc1NC(=O)c1cccc([N+](=O)[O-])c1 [CBK066845],93.3%
3,N#Cc1ccc(-c2cccs2)nc1SCC(=O)Nc1ccc([N+](=O)[O-])cc1 [CBK066850],87.5%
4,COC(=O)c1sccc1NC(=O)c1ccccc1Cl [CBK066860],65.5%
5,Cc1sc(C(N)=O)cc1[N+](=O)[O-] [CBK066863],106%
6,CN1CCN(c2ccnc3cc(Cl)ccc23)CC1 [CBK066867C],86%
7,Cc1cc(N2CCN(CC(=O)c3ccc(Cl)cc3)CC2)c2ccccc2n1 [CBK066868],106%
8,COc1ccccc1N1CCN(CC2CN(c3ccccc3)c3ccccc3O2)CC1 (stereo not shown) [CBK066872C],84.7%
9,c1ccc(N2CCN(CC3CN(c4ccccc4)c4ccccc4O3)CC2)cc1 (stereo not shown) [CBK066876],86%
10,CN1CCN(C2c3ccccc3Oc3ccccc32)CC1 [CBK066891],93%
11,c1ccc(-c2nnc3ccccc3c2NCCCN2CCOCC2)cc1 [CBK066892],93.9%
12,c1ccc(N2CCN(C3c4ccccc4Sc4ccccc43)CC2)cc1 [CBK066894],92.1%
13,COc1ccc2nc(C)cc(N3CCOCC3)c2c1 [CBK066896],91.2%
14,CCOc1ccc(-c2cc(C(=O)N3CCN(C)CC3)c3ccccc3n2)cc1 [CBK066900],99%
15,Clc1ccc(N2CCN(c3cnc4ccccc4n3)CC2)cc1Cl [CBK066903],97.8%
16,CN1CCN(c2cc3ncccc3cc2F)CC1 [CBK066904],105%
17,COc1ccc2[nH]cc(CCNC(=O)[C@@H]3Cc4c([nH]c5ccccc45)C4(CCN(Cc5ccc(F)cc5)C4)N3)c2c1 (stereo partly shown) [CBK066937],98%
18,CC(=O)N1CCc2c([nH]c3ccccc23)C1CCN(C)Cc1ccc(F)cc1 (stereo not shown) [CBK066969],93.9%
19,Fc1ccc(OCCNCC2NCCc3c2[nH]c2ccccc32)cc1 (stereo not shown) [CBK066972],92.8%
20,O=C1N=C(NCC2CCCCC2)SC1CC(=O)N1Cc2ccccc2C1 (stereo not shown) [CBK067016],85.1%
21,Cc1c(Cl)cccc1CNC(=O)CC1SC(NCC2CCCCC2)=NC1=O (stereo not shown) [CBK067017],91.7%
22,O=c1nc(NC2CCCCC2)sc2ncccc12 [CBK067024T],92.6%
